Here are results for 26 molecules from patent US8134015B2, “Compound inhibiting in vivo phosphorous transport and medicine containing the same” (Kyowa Hakko Kirin Co., Ltd., priority 2003, dated 2012).

One experiment concerns the target T1, rat NaPi-2b (Rattus norvegicus, UniProt Q9JJ09).
T1 construct: expressed in transfected cells; host or cells: Xenopus oocytes injected with cRNA
T1 sequence (Q9JJ09 1-695): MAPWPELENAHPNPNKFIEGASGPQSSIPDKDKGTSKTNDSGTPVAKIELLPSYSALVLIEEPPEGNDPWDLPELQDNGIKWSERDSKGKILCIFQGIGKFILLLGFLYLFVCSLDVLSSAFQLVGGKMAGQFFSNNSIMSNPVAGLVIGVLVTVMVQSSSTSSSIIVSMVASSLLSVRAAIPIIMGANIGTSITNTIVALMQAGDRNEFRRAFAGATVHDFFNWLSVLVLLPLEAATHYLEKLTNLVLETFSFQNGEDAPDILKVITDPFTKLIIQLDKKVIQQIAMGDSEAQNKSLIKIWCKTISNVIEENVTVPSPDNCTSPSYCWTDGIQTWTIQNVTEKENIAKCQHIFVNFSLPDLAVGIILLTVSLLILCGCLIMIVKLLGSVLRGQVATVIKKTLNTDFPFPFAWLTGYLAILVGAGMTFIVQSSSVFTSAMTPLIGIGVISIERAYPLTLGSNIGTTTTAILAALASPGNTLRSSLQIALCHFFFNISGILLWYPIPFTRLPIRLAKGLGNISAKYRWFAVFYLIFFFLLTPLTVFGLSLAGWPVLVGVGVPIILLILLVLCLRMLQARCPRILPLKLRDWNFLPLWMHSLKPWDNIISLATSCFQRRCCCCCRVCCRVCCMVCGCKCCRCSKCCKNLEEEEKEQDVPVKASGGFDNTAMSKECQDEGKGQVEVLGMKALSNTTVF
Description: Sodium-dependent phosphate uptake of Xenopus oocytes which expressed NaPi-2b (32P). The experiment is classed as cell-based. The following applies: Xenopus oocytes expressing rat NaPi-2b, 32P radioactive phosphorus; read-out: IC50 (phosphate uptake inhibitory activity). The essentials:
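Read-out is 32P phosphate uptake into Xenopus oocytes expressing rat intestinal NaPi-2b (cRNA injection, 2-day culture). Inhibition at 300 μM and 100 μM was derived from a single inhibition curve and given as percent.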
Take `COc1ccc(C(=O)Nc2scc(C)c2C(=O)N/N=C/c2ccc(C)c(C)c2)cc1OC` [Compound 521, N-[3-(3,4-Dimethyl-benzylidene-hydrazinocarbonyl)-4-methyl-thiophen-2-yl]-3,4-dimethoxy-benzamide]: the IC50 came out at 1.24 µM.
Same read-out and setting: for `CN(CCCCCCN(C)Cc1cccc(C(=O)Nc2ccc(Cl)cc2C(=O)N/N=C/c2ccc(Cl)c(C(F)(F)F)c2)c1)Cc1cccc(C(=O)Nc2ccc(Cl)cc2C(=O)N/N=C/c2ccc(Cl)c(C(F)(F)F)c2)c1` [Compound 690, N1-[4-Chloro-2-({2-[(E)-1-(4-chloro-3-trifluoromethyl-phenyl)methylidene]hydrazino}carbonyl)phenyl)-3-{[{6-[(3-{[4-chloro-2-({2-[(E)-1-(4-chloro-3-trifluoromethyl-phenyl)methylidene]hydrazino}-carbonyl}anilino}carbonyl}benzyl}(methyl)amino)hexyl)(methyl)amino]-methyl]benzamide] the value was 88 µM; for `CCN(CC)CCN(C)Cc1cccc(C(=O)Nc2sc3c(c2C(=O)N/N=C/c2ccc(F)cc2)CCCC3)c1` [Compound 611, 3-{[(2-Diethylamino-ethyl)-methyl-amino]-methyl}-N-[3-(4-fluoro-benzylidene-hydrazinocarbonyl)-4,5,6,7-tetrahydro-benzo-[b]thiophen-2-yl]-benzamide], 2.16 µM.
Regarding `Cc1ccc(/C=N/NC(=O)c2cc(Br)ccc2NC(=O)c2ccco2)cc1C` [Compound 155, Furan-2-carboxylic acid [4-bromo-2-(3,4-dimethyl-benzylidene-hydrazinocarbonyl)-phenyl]-amide], the IC50 was found to be 0.32 µM.
The same measure, in the same setting: to `COc1ccc(C(=O)Nc2ccc(N3CCCCC3)cc2C(=O)N/N=C/c2ncc[nH]2)cc1OC` [Compound 937, N-[2-(1H-Imidazol-2-ylmethylene-hydrazinocarbonyl)-4-piperidin-1-yl-phenyl]-3,4-dimethoxy-benzamide] belongs 137 µM; to `CCN(CC)CCN(C)Cc1cccc(C(=O)Nc2sccc2C(=O)N/N=C/c2ccc(C)c(C)c2)c1` [Compound 664, 3-{[(2-Diethylamino-ethyl)-methyl-amino]-methyl}-N-[3-(3,4-dimethyl-benzylidene-hydrazinocarbonyl)-thiophen-2-yl]-benzamide], 15.1 µM; to `CCN(CC)CCN(Cc1cccc(C(=O)Nc2sc3c(c2C(=O)N/N=C/c2ccc(C)c(C)c2)CCCC3)c1)C(C)=O` [Compound 652, 3-{[Acetyl-(2-diethylamino-ethyl)-amino]-methyl}-N-[3-(3,4-dimethyl-benzylidene-hydrazinocarbonyl)-4,5,6,7-tetrahydro-benzo[b]thiophen-2-yl]-benzamide], 0.72 µM.
Take `O=C(Nc1ccc(Br)cc1C(=O)N/N=C/c1ccc(Cl)c(C(F)(F)F)c1)c1ccc(CN2CCN(CC(=O)N3CCOCC3)CC2)cc1` [Compound 306, N-[4-Bromo-2-(4-chloro-3-trifluoromethyl-benzylidene-hydrazinocarbonyl)-phenyl]-4-[4-(2-morpholin-4-yl-2-oxo-ethyl)-piperazin-1-ylmethyl]-benzamide]: the IC50 was 2.13 µM.
On to `COc1cc(/C=N/NC(=O)c2cc(N3CCCCC3)ccc2NC(=O)c2ccc(OC)c(OC)c2)ccc1O` [Compound 938, N-[2-(4-Hydroxy-3-methoxy-benzylidene-hydrazinocarbonyl)-4-piperidin-1-yl-phenyl]-3,4-dimethoxy-benzamide], for which the IC50 is 1.41 µM.
Consider `CCc1ccc(C(=O)Nc2ccc(Br)cc2C(=O)N/N=C/c2ccc(C)c(C)c2)cc1` [Compound 182, N-[4-Bromo-2-(3,4-dimethyl-benzylidene-hydrazinocarbonyl)-phenyl]-4-ethyl-benzamide], for which the IC50 was found to be 10.2 µM.
Take `O=C(Nc1cc2ccccc2cc1C(=O)N/N=C/c1ccc(Cl)c(C(F)(F)F)c1)c1cccc(CN2CCN(CCO)CC2)c1` [Compound 972, N-[3-(4-Chloro-3-trifluoromethyl-benzylidene-hydrazinocarbonyl)-naphthalen-2-yl]-3-[4-(2-hydroxy-ethyl)-piperazin-1-ylmethyl]-benzamide]: the IC50 was under 3 µM.
With `Cc1ccc(/C=N/NC(=O)c2cc(Br)ccc2NC(=O)c2ccc(CN3CCN(CCO)CC3)cc2)cc1C` [Compound 316, N-[4-Bromo-2-(3,4-dimethyl-benzylidene-hydrazinocarbonyl)-phenyl]-4-[4-(2-hydroxy-ethyl)-piperazin-1-ylmethyl]-benzamide], the IC50 turned out to be 4.71 µM.
Regarding `COc1ccc(C(=O)Nc2ccccc2C(=O)N/N=C/c2ccccc2)cc1OC` [Compound 17, N-[2-(Benzylidene-hydrazinocarbonyl)-phenyl]-3,4-dimethoxy-benzamide], the IC50 is 3.59 µM.
The same measure, in the same setting: for `CCOCCN(CCOCC)Cc1ccc(C(=O)Nc2ccc(Br)cc2C(=O)N/N=C/c2ccc(C)c(C)c2)cc1` [Compound 733, 4-{[Bis-(2-ethoxy-ethyl)-amino]-methyl}-N-[4-bromo-2-(3,4-dimethyl-benzylidene-hydrazinocarbonyl)-phenyl]-benzamide] the value was under 10 µM; for `CCN(CCO)Cc1cccc(C(=O)Nc2ccc(Cl)cc2C(=O)N/N=C/c2ccc(C)cc2)c1` [Compound 425, N-[4-Chloro-2-(4-methyl-benzylidene-hydrazinocarbonyl)-phenyl]-3-{[ethyl-(2-hydroxy-ethyl)-amino]-methyl}-benzamide], under 3 µM; for `CCN(CCO)Cc1cccc(C(=O)Nc2ccc(Cl)cc2C(=O)N/N=C/c2ccc(OC)cc2)c1` [Compound 429, N-[4-Chloro-2-(4-methoxy-benzylidene-hydrazinocarbonyl)-phenyl]-3-{[ethyl-(2-hydroxy-ethyl)-amino]-methyl}-benzamide], 5.88 µM.
The same measure, in the same setting: to `COc1ccc(C(=O)Nc2ccc(Br)cc2C(=O)NNCc2ccc(C)cc2)cc1OC` [Compound 367, N-{4-Bromo-2-[N′-(4-methyl-benzyl)-hydrazinocarbonyl]-phenyl}-3,4-dimethoxy-benzamide] belongs 6.88 µM; to `CCN1CC(NCc2ccc(-c3nc4ccc(Br)cc4c(=O)n3/N=C/c3ccc(C)c(C)c3)cc2)CN1CC` [Compound 749, 6-Bromo-2-{4-[(1,2-diethyl-pyrazolidin-4-ylamino)-methyl]-phenyl}-3-[(3,4-dimethyl-benzylidene)-amino]-3H-quinazolin-4-one], 9.05 µM; to `Cc1ccc(/C=N/NC(=O)c2cc(Br)ccc2NC(=O)c2ccc(CN3CCC(N4CCCCC4)CC3)cc2)cc1C` [Compound 308, 4-[1,4′]Bipiperidinyl-1′-ylmethyl-N-[4-bromo-2-(3,4-dimethyl-benzylidene-hydrazinocarbonyl)-phenyl]-benzamide], 2.76 µM.
For `CC(O)CN(Cc1cccc(C(=O)Nc2cc3ccccc3cc2C(=O)N/N=C/c2ccc(Cl)c(C(F)(F)F)c2)c1)CC(C)O` (centres unmarked) [Compound 962, 3-{[Bis-(2-hydroxy-propyl)-amino]-methyl}-N-[3-(4-chloro-3-trifluoromethyl-benzylidene-hydrazinocarbonyl)-naphthalen-2-yl]-benzamide], the IC50 was under 1 µM.
As to `O=C(Nc1ccc(Cl)cc1C(=O)N/N=C/c1cccc(OCCO)c1)c1ccncc1` [Compound 351, N-{4-Chloro-2-[3-(2-hydroxy-ethoxy)-benzylidene-hydrazinocarbonyl]-phenyl}-isonicotinamide], the IC50 was found to be 8.96 µM.

The same experiment, now with this note: phosphate uptake, oocytes expressing rat NaPi-2b; 300 μM, determined from inhibition curve.
Molecule `CCSCCNCc1ccc(C(=O)Nc2ccc(Br)cc2C(=O)N/N=C/c2ccc(F)cc2)cc1` [Compound 767, N-[4-Bromo-2-(4-fluoro-benzylidene-hydrazinocarbonyl)-phenyl]-4-[(2-ethylsulfanyl-ethylamino)-methyl]-benzamide] yielded an inhibition at 300 µM of 81.8%.
In the case of `COc1ccc(/C=N/NC(=O)c2c(C)csc2NC(=O)c2cccc(CSCCS(=O)(=O)O)c2)cc1` [Compound 785, 2-{3-[3-(4-Methoxy-benzylidene-hydrazinocarbonyl)-4-methyl-thiophen-2-ylcarbamoyl]-benzylsulfanyl}-ethanesulfonic acid], 300 µM produced 39.5% inhibition.
Molecule `COc1ccc(C(=O)Nc2ccccc2C(=O)N/N=C/c2ccccc2F)cc1OC` [Compound 2, N-[2-(2-Fluoro-benzylidene-hydrazinocarbonyl)-phenyl]-3,4-dimethoxy-benzamide] yielded an inhibition at 300 µM of 77.3%.
As to `Cc1ccc(/C=N/NC(=O)c2cc(Br)ccc2NC(=O)c2ccc(CN3CCC(CCO)CC3)cc2)cc1` [Compound 741, N-[4-Bromo-2-(4-methyl-benzylidene-hydrazinocarbonyl)-phenyl]-4-[4-(2-hydroxy-ethyl)-piperidin-1-ylmethyl]-benzamide], the inhibition at 300 µM was 50.9%.
For the molecule `COc1ccc(/C=N/NC(=O)c2cc(Br)ccc2NC(=O)c2ccc(CNCCN3CCOCC3)cc2)cc1` [Compound 715, N-[4-Bromo-2-(4-methoxy-benzylidene-hydrazinocarbonyl)-phenyl]-4-[(2-morpholin-4-yl-ethylamino)-methyl]-benzamide], the inhibition at 300 µM was determined as 84.1%.
